Experimental data reported in paper PMC11882969 (Nature Communications, 2025).
pEC50: −log10 of the molar value. Values joined by “and” are separate entries in the source; they are usually repeats but may differ in a detail not shown here. Equal values may be shown once.

Assays:
[1] = target: panel of 320 non-olfactory GPCRs (Homo sapiens, UniProt O00254); format: cell-based
[2] = target: panel of 320 non-olfactory GPCRs (Homo sapiens, UniProt P21728); format: cell-based
[3] = target: panel of 320 non-olfactory GPCRs (Homo sapiens, UniProt P25106); format: cell-based
panel of 320 non-olfactory GPCRs (Homo sapiens, UniProt P25106), sequence (P25106 whole entry): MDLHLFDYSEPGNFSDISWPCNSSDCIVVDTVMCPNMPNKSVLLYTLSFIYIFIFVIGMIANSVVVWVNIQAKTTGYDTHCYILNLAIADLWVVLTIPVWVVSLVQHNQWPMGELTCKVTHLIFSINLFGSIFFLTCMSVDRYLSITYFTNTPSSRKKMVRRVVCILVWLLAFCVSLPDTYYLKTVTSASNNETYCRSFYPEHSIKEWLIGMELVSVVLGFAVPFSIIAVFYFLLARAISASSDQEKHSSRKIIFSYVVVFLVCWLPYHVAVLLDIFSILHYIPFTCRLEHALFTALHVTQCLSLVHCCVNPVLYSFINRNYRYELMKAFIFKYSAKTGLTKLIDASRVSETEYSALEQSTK

[4] = target: panel of 320 non-olfactory GPCRs (Homo sapiens, UniProt P28221); format: cell-based
[5] = target: panel of 320 non-olfactory GPCRs (Homo sapiens, UniProt P28222); format: cell-based
[6] = target: panel of 320 non-olfactory GPCRs (Homo sapiens, UniProt P30872); format: cell-based
[7] = target: panel of 320 non-olfactory GPCRs (Homo sapiens, UniProt P31391); format: cell-based
[8] = target: panel of 320 non-olfactory GPCRs (Homo sapiens, UniProt P41968); format: cell-based
panel of 320 non-olfactory GPCRs (Homo sapiens, UniProt P41968), sequence (P41968 whole entry): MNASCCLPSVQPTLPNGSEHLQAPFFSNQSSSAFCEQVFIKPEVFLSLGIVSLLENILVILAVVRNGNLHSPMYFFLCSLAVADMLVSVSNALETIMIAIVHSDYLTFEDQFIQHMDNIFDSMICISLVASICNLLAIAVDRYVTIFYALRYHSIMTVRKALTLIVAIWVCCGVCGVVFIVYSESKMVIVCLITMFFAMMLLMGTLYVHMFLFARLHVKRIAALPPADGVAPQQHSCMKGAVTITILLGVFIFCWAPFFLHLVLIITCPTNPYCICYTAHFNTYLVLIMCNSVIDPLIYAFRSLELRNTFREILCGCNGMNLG

[9] = target: panel of 320 non-olfactory GPCRs (Homo sapiens, UniProt P46089); format: cell-based
panel of 320 non-olfactory GPCRs (Homo sapiens, UniProt P46089), sequence (P46089 whole entry): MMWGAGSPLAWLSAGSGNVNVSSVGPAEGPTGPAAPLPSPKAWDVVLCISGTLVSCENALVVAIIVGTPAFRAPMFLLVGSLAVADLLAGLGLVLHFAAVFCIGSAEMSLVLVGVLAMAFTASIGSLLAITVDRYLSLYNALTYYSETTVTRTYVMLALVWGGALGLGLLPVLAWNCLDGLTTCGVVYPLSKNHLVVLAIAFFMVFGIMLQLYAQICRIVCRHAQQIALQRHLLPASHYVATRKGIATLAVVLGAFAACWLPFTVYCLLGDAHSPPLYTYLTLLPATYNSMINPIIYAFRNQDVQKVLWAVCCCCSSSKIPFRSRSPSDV

[10] = target: panel of 320 non-olfactory GPCRs (Homo sapiens, UniProt P46663); format: cell-based
[11] = target: panel of 320 non-olfactory GPCRs (Homo sapiens, UniProt P47775); format: cell-based
panel of 320 non-olfactory GPCRs (Homo sapiens, UniProt P47775), sequence (P47775 whole entry): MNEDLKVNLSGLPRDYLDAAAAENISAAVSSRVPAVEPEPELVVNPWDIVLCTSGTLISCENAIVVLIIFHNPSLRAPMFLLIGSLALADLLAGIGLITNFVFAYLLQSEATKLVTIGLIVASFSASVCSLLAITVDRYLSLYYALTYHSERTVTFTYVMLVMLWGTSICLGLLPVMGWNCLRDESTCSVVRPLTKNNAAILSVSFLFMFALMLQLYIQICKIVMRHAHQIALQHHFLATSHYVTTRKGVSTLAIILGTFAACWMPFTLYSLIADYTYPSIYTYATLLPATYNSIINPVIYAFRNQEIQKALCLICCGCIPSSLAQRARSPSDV

[12] = target: panel of 320 non-olfactory GPCRs (Homo sapiens, UniProt P50052); format: cell-based
[13] = target: panel of 320 non-olfactory GPCRs (Homo sapiens, UniProt P51679); format: cell-based
[14] = target: panel of 320 non-olfactory GPCRs (Homo sapiens, UniProt Q13258); format: cell-based
panel of 320 non-olfactory GPCRs (Homo sapiens, UniProt Q13258), sequence (Q13258 whole entry): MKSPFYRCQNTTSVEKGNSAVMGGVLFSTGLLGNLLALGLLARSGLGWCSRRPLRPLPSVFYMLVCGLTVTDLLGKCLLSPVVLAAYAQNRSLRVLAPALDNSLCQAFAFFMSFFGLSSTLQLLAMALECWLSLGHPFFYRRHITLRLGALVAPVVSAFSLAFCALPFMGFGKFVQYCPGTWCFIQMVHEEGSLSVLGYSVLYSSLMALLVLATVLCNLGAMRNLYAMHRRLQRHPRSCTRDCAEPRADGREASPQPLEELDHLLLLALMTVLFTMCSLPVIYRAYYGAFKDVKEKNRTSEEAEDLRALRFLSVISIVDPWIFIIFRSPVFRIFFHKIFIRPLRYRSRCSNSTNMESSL

[15] = target: panel of 320 non-olfactory GPCRs (Homo sapiens, UniProt Q13585); format: cell-based
[16] = target: panel of 320 non-olfactory GPCRs (Homo sapiens, UniProt Q14439); format: cell-based
[17] = target: panel of 320 non-olfactory GPCRs (Homo sapiens, UniProt Q6QNK2); format: cell-based
[18] = target: panel of 320 non-olfactory GPCRs (Homo sapiens, UniProt Q86SM5); format: cell-based
panel of 320 non-olfactory GPCRs (Homo sapiens, UniProt Q86SM5), sequence (Q86SM5 whole entry): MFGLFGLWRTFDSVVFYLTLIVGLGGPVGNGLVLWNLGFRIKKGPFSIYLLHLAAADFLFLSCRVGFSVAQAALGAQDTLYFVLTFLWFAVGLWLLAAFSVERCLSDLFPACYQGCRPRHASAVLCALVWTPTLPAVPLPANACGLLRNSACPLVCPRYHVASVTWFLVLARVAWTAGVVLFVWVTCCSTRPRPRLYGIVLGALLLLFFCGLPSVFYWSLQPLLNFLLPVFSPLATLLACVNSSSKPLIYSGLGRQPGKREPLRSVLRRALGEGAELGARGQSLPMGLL

[19] = target: panel of 320 non-olfactory GPCRs (Homo sapiens, UniProt Q8IYL9); format: cell-based
panel of 320 non-olfactory GPCRs (Homo sapiens, UniProt Q8IYL9), sequence (Q8IYL9 whole entry): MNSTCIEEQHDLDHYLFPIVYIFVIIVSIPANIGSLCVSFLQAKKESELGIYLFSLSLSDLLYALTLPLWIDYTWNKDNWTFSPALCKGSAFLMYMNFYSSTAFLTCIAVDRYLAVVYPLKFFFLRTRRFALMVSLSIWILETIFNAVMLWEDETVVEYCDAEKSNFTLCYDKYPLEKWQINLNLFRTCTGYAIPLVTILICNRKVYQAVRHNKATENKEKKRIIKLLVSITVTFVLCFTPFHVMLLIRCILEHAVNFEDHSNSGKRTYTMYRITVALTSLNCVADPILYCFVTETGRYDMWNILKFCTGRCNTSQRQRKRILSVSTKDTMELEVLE

[20] = target: panel of 320 non-olfactory GPCRs (Homo sapiens, UniProt Q8IZF3); format: cell-based
panel of 320 non-olfactory GPCRs (Homo sapiens, UniProt Q8IZF3), sequence (Q8IZF3 22-695): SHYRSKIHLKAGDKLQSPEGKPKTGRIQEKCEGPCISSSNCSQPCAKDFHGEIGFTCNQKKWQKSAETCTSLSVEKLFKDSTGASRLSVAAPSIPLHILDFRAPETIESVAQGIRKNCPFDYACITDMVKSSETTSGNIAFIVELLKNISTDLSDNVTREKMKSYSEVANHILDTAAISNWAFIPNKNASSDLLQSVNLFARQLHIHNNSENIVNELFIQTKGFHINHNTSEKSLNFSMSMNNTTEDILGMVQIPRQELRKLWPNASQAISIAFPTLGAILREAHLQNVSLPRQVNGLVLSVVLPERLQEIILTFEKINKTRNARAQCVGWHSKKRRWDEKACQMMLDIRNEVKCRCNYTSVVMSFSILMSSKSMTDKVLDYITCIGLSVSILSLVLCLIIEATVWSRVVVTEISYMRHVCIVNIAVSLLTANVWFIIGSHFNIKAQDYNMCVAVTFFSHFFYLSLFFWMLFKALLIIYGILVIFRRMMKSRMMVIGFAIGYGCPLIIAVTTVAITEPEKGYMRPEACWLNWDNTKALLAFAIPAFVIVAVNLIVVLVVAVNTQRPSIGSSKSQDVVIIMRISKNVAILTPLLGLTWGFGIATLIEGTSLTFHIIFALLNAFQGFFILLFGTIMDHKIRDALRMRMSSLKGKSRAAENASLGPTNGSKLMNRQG

[21] = target: panel of 320 non-olfactory GPCRs (Homo sapiens, UniProt Q8N6U8); format: cell-based
[22] = target: panel of 320 non-olfactory GPCRs (Homo sapiens, UniProt Q92633); format: cell-based
panel of 320 non-olfactory GPCRs (Homo sapiens, UniProt Q92633), sequence (Q92633 whole entry): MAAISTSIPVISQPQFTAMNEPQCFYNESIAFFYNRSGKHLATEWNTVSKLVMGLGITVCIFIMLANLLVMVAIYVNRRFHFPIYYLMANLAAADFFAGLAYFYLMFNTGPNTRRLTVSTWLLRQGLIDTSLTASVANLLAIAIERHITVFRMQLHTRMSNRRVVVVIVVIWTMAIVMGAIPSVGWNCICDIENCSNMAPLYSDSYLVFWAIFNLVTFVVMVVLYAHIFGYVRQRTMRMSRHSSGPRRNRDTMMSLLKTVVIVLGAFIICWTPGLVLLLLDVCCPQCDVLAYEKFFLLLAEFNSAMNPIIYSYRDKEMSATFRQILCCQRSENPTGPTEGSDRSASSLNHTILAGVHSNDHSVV

[23] = target: panel of 320 non-olfactory GPCRs (Homo sapiens, UniProt Q969N4); format: cell-based
[24] = target: panel of 320 non-olfactory GPCRs (Homo sapiens, UniProt Q96P68); format: cell-based
[25] = target: panel of 320 non-olfactory GPCRs (Homo sapiens, UniProt Q99677); format: cell-based
panel of 320 non-olfactory GPCRs (Homo sapiens, UniProt Q99677), sequence (Q99677 whole entry): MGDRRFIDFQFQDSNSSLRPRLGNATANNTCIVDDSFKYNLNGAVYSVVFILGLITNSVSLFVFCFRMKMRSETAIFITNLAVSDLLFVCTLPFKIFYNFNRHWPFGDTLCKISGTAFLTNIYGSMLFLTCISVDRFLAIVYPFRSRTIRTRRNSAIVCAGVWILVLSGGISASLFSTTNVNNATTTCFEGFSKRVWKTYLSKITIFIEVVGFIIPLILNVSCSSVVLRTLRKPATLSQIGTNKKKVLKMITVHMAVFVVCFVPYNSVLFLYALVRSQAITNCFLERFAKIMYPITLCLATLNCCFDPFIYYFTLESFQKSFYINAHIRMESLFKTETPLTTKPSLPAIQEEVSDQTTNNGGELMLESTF

[26] = target: panel of 320 non-olfactory GPCRs (Homo sapiens, UniProt Q9GZN0); format: cell-based
[27] = target: panel of 320 non-olfactory GPCRs (Homo sapiens, UniProt Q9HBW0); format: cell-based
panel of 320 non-olfactory GPCRs (Homo sapiens, UniProt Q9HBW0), sequence (Q9HBW0 whole entry): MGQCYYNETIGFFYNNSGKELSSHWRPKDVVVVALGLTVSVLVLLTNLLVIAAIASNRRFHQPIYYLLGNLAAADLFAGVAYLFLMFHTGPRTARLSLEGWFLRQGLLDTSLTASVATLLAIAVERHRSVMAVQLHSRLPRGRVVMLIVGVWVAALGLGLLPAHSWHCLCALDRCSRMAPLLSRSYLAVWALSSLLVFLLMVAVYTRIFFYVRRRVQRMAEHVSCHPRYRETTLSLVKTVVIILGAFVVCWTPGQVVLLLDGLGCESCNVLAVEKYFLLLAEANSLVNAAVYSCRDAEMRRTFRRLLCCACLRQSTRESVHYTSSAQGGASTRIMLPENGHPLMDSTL

[28] = target: panel of 320 non-olfactory GPCRs (Homo sapiens, UniProt Q9NZD1); format: cell-based
[29] = target: panel of 320 non-olfactory GPCRs (Homo sapiens, UniProt Q9P296); format: cell-based
[30] = target: panel of 320 non-olfactory GPCRs (Homo sapiens, UniProt Q9UNW8); format: cell-based
panel of 320 non-olfactory GPCRs (Homo sapiens, UniProt Q9UNW8), sequence (Q9UNW8 whole entry): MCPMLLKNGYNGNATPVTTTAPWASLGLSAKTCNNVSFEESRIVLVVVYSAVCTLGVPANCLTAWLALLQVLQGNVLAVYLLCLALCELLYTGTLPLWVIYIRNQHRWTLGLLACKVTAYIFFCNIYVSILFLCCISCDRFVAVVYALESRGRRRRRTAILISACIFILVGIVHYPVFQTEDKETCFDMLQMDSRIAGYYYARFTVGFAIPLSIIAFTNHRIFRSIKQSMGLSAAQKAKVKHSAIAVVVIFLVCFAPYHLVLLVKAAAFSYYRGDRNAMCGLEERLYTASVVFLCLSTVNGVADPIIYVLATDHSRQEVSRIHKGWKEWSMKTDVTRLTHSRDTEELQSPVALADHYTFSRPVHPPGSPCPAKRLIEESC

[31] = target: panel of 320 non-olfactory GPCRs (Homo sapiens, UniProt Q9Y5Y3); format: cell-based
panel of 320 non-olfactory GPCRs (Homo sapiens, UniProt Q9Y5Y3), sequence (Q9Y5Y3 whole entry): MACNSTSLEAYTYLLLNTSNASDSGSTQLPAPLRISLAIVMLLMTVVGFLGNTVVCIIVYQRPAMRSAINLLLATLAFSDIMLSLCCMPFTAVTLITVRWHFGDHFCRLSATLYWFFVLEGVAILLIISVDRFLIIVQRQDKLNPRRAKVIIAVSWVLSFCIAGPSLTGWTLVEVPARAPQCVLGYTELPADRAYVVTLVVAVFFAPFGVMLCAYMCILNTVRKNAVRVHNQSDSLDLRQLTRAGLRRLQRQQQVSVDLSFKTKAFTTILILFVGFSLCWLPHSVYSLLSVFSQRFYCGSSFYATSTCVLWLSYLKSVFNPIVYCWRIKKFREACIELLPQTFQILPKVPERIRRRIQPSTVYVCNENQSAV

[32] = target: hCB1 (Homo sapiens, UniProt P21554); assay: GloSensor cAMP accumulation assay; format: cell-based
Description: Briefly, hCB1-expressing cells were transfected with the GloSensor cAMP DNA construct overnight. […] The results were analyzed using GraphPad Prism 9. Each experiment was performed in triplicate and functional IC50 values were determined from the mean of three independent experiments.

[33] = system: CB1R; assay: Bimane fluorescence of labeled CB1R; format: biochemical, human; details: 10 μM ligand; apo 459 nm
Description: A minimal cysteine version of CB1R was generated[85] where all the cysteine residues (except C256 and C264) were mutated to alanine. […] Excess label was removed using size exclusion chromatography on a Superdex 200 10/300 Increase column in 20 mM HEPES pH 7.5, 100 mM NaCl and 0.01% MNG/0.001% CHS. Bimane-labeled CB1R at […] was incubated with ligands (10 μM) for one hour at room temperature. Fluorescence data was collected at room temperature in a 150 μL cuvette with a FluorEssence v3.8 software on a Fluorolog instrument (Horiba) in photon-counting mode. Bimane fluorescence was measured by excitation at 370 nm with excitation and emission bandwidth passes of 4 nm. The emission spectra were recorded from 410 to 510 nm with 1 nm increment and 0.1 s integration time.

| SMILES | Fold of Basal RLU [1] | Fold of Basal RLU [2] | Fold of Basal RLU [3] | Fold of Basal RLU [4] | Fold of Basal RLU [5] | Fold of Basal RLU [6] | Fold of Basal RLU [7] | Fold of Basal RLU [8] | Fold of Basal RLU [9] | Fold of Basal RLU [10] | Fold of Basal RLU [11] | Fold of Basal RLU [12] | Fold of Basal RLU [13] | Fold of Basal RLU [14] | Fold of Basal RLU [15] | Fold of Basal RLU [16] | Fold of Basal RLU [17] | Fold of Basal RLU [18] | Fold of Basal RLU [19] | Fold of Basal RLU [20] | also measured |
| --- | --- | --- | --- | --- | --- | --- | --- | --- | --- | --- | --- | --- | --- | --- | --- | --- | --- | --- | --- | --- | --- |
| Cc1cc(C(=O)NC(C)(c2ccco2)c2ccco2)nn1-c1cccc(C(F)(F)F)c1 [‘4936] | 1 fold and 0.7 fold and 0.9 fold and 1.1 fold | 0.7 and 0.9 and 0.8 | 3.3 fold and 2.7 fold and 2.1 fold and 4 fold | 1.2 fold and 1.1 fold | 1.4 fold and 1.2 fold and 1.3 fold | 1.3 fold and 1.2 fold and 1.5 fold and 1.8 fold | 1.9 and 1.7 and 2.4 and 1.5 | 1.5 and 0.9 | 1 fold and 1.1 fold and 1.4 fold | 1.3 and 1.1 and 0.9 and 1.4 | 1.4 fold and 2.1 fold and 1.5 fold and 1.8 fold | 1.1 fold and 1.2 fold and 0.9 fold | 0.6 and 0.5 | 1.5 and 1.4 and 1.6 and 2.3 | 0.8 and 0.6 and 0.5 and 0.7 | 0.8 and 0.9 and 1 | 0.9 fold | 1.1 fold and 1 fold | 1.1 fold and 1 fold | 1 fold and 1.2 fold and 0.6 fold | Fold of Basal RLU [21]: 1.1 fold and 1.2 fold; Fold of Basal RLU [22]: 1.1 fold and 1 fold and 0.9 fold; Fold of Basal RLU [23]: 1.4 fold and 0.8 fold and 1.2 fold; Fold of Basal RLU [24]: 1.3 fold and 1.5 fold and 2.1 fold; Fold of Basal RLU [25]: 1.5 and 1.4 and 1.3 and 1; Fold of Basal RLU [26]: 1.5 and 1.4 and 1.6; Fold of Basal RLU [27]: 0.7 and 0.8 and 1 and 1.2; Fold of Basal RLU [28]: 0.8 and 0.6 and 0.9; Fold of Basal RLU [29]: 0.9 fold and 1 fold and 1.1 fold; Fold of Basal RLU [30]: 1.2 fold and 0.9 fold; Fold of Basal RLU [31]: 1.6 and 1.2 and 1.5 |
| COC(=O)C(NC(=O)c1cc(C)n(-c2cccc(C(F)(F)F)c2)n1)c1cccs1 (stereo not drawn) [‘60154] | – | – | – | – | – | – | – | – | – | – | – | – | – | – | – | – | – | – | – | – | pEC50 [32]: 7.60; Emax [32]: 82%; Glosensor cAMP pEC50 [32]: 7.6 [7.4 – 7.8] |
| COC(=O)C(C)(NC(=O)c1cc(C)n(-c2cccc(C(F)(F)F)c2)n1)c1cccs1 (stereo not drawn) [‘4042] | – | – | – | – | – | – | – | – | – | – | – | – | – | – | – | – | – | – | – | – | Emax [32]: 91%; Glosensor cAMP pEC50 [32]: 10.4 [10.3 – 10.5] |
| COC(=O)[C@](C)(NC(=O)c1cc(C)n(-c2cccc(C(F)(F)F)c2)n1)c1cccs1 [‘8690] | – | – | – | – | – | – | – | – | – | – | – | – | – | – | – | – | – | – | – | – | bimane spectrum λmax [33]: 459 nm |
| COC(=O)[C@@](C)(NC(=O)c1cc(C)n(-c2cccc(C(F)(F)F)c2)n1)c1cccs1 [‘1350] | 0.9 fold and 1.1 fold | 0.9 and 1.1 and 0.8 | 1.1 fold and 1 fold and 1.6 fold and 2 fold | 1.1 fold and 0.9 fold and 1.2 fold | 1.3 fold and 1.1 fold and 1.2 fold | 1.6 fold and 1.2 fold and 1.5 fold | 2.3 and 2 and 1.6 | 1.3 and 0.9 and 1.1 and 0.7 | 1 fold and 1.1 fold and 1.4 fold and 1.3 fold | 1.6 and 1.3 and 1.1 | 1.5 fold and 1.3 fold and 0.8 fold | 1.1 fold and 1 fold | 1.1 and 1 and 0.9 | 0.9 and 0.6 and 0.8 | 0.9 and 0.7 and 1.3 and 1 | 0.7 and 0.8 and 1 and 0.9 | 0.7 fold and 0.9 fold and 1 fold and 1.1 fold | 0.7 fold and 0.8 fold | 0.9 fold and 0.8 fold and 1 fold | 1.1 fold and 0.9 fold | bimane spectrum λmax [33]: 463 nm; Fold of Basal RLU [21]: 1.2 fold and 1.1 fold and 1 fold; Fold of Basal RLU [22]: 1.3 fold and 1 fold and 1.2 fold; Fold of Basal RLU [23]: 0.6 fold and 0.8 fold and 0.4 fold; Fold of Basal RLU [24]: 1.1 fold and 1.3 fold and 1.6 fold; Fold of Basal RLU [25]: 1.3 and 1.1 and 1 and 0.9; Fold of Basal RLU [26]: 1.5 and 1.4 and 1.3; Fold of Basal RLU [27]: 0.7 and 0.8 and 1.1 and 0.6; Fold of Basal RLU [28]: 1.1 and 1 and 0.6 and 0.8; Fold of Basal RLU [29]: 0.9 fold and 0.8 fold and 1.3 fold and 1.5 fold; Fold of Basal RLU [30]: 0.8 fold and 1 fold; Fold of Basal RLU [31]: 0.8 and 1.2 and 1.3 and 1 |
